Consider 19 compounds from patent publication US4782154A, “Isoquinoline derivatives” (Mitsui Toatsu Chemicals, Inc., priority 1986, dated 1988).

For the test, the system named is Mongrel dogs. Nature of the test: Recovery of LV dP/dtmax in propranolol-induced heart failure state, anesthetized dogs (Test Example 1). The test is classed as in vivo. Conditions: iv; for ED100: Canis lupus familiaris, dose required for recovering the reduction in LV dP/dtmax to the value before propranolol administration, anesthetized mongrel dogs; for Blood pressure: change in BP at ED100, variation coefficient relative to the values of the stable (heart failure) state; for Blood pressure / Number of heart beat: dogs; for Number of heart beat: change in HR at ED100, variation coefficient relative to the values of the stable (heart failure) state. On the procedure: Mongrel dogs of either sex, weighing 8 to 12 kg, were anesthetized with sodium pentobarbital (30 mg/kg i.v.). The left ventricular pressure (LVP) was measured with a sensor tip transducer and the maximum rate of rise of LVP (LV dP/dtmax) was calculated by an electronic differentiator. Polyethylene cannulae were inserted into the femoral artery to measure systemic blood pressure (BP) and into the femoral veins for administration or infusion of chemicals. BP was measured with a pressure transducer and heart rate (HR) by a cardiotachometer from the pressure pulse. The respective parameters were simultaneously recorded on a multichannel polygraph.
To induce and maintain heart failure state, propranolol was administered in a bolus injection (4 mg/kg i.v.) followed by an infusion (0.1 mg/kg/min i.v.). […] The dose of tested chemicals required for recovering the reduction in the LV dP/dtmax to the value before the propranolol administration was determined and defined as an ED100. The changes in BP and HR at ED100 were expressed by the variation coefficient relative to the values of the stable state.

Molecules are shown by their SMILES.

Consider `CCCc1c2c(c(C)[nH]c1=O)CC(c1ccncc1)CC2` (stereo not drawn) [Example 9, 1-methyl-4-propyl-7-(4-pyridyl)-5,6,7,8-tetrahydro-3(2H)isoquinolinone], for which the ED100 stood at 0.3 mg/kg, the Blood pressure is reported as -16.6% and the “Number of heart beat” value is reported as “+14.4%”.

Turning to `Cc1[nH]c(=O)c(C(C)(C)O)c2c1CC(c1ccccn1)CC2` (stereo not drawn) [Example 18, 4-(2-(2-hydroxypropyl))-1-methyl-7-(2-pyridyl)-5,6,7,8-teterahydro-3(2H)isoquinolinone], the ED100 is 0.3 mg/kg, the Blood pressure is listed as -8.3% and the “Number of heart beat” value is “+30.1%”.

`CCCC(=O)c1c2c(c(C)[nH]c1=O)CC(c1ccncc1)CC2` (stereo not drawn) [Example 5, 4-butylyl-1-methyl-7-(4-pyridyl)5,6,7,8-tetrahydro-3(2H)isoquinolinone]: the ED100 worked out at 3 mg/kg, the Blood pressure was -20.2% and the “Number of heart beat” value is on record as “+23.7%”.

Consider `CCc1c2c(c(C)[nH]c1=O)CC(c1ccncc1)CC2` (stereo not drawn) [Example 8, 4-ethyl-1-methyl-7-(4-pyridyl)-5,6,7,8-tetrahydro-3(2H)isoquinolinone], for which the ED100 is 0.03 mg/kg, the Blood pressure is -22.5% and the “Number of heart beat” value is reported as “+25.3%”.

Turning to `CCc1[nH]c(=O)c(C(C)=O)c2c1CC(c1ccncc1)CC2` (stereo not drawn) [Example 1, 4-acetyl-1-ethyl-7-(4-pyridyl)-5,6,7,8-tetrahydro-3(2H)isoquinolinone], the ED100 stood at 1 mg/kg, the Blood pressure is -32.1% and the “Number of heart beat” value was “+17.3%”.

Take `C=C(C)c1c2c(c(C)[nH]c1=O)CC(c1ccncc1)CC2` (stereo not drawn) [Example 15, 4-isopropenyl-1-methyl-7-(4-pyridyl)-5,6,7,8-tetrahydro-3(2H)isoquinolinone]: the ED100 was determined as 0.03 mg/kg, the Blood pressure was -16.4% and the “Number of heart beat” value is listed as “+28.6%”.

Turning to `Cc1[nH]c(=O)c(C(C)O)c2c1CC(c1ccncc1)CC2` (stereo not drawn) [Example 12, 4-(1-hydroxyethyl)-1-methyl-7-(4-pyridyl)-5,6,7,8-tetrahydro-3(2H)isoquinolinone], the ED100 was 3 mg/kg, the Blood pressure is -19.7% and the “Number of heart beat” value is listed as “+22.5%”.

`Cc1[nH]c(=O)c(CO)c2c1CC(c1ccncc1)CC2` (stereo not drawn) [Example 13, 4-(hydroxymethyl)-1-methyl-7-(4-pyridyl)-5,6,7,8-tetrahydro-3(2H)isoquinolinone]: the ED100 worked out at 0.3 mg/kg, the Blood pressure is given as -2.6% and the “Number of heart beat” value is reported as “+20.0%”.

With `CCCCc1[nH]c(=O)c(C(C)=O)c2c1CC(c1ccncc1)CC2` (stereo not drawn) [Example 2, 4-acetyl-1-butyl-7-(4-pyridyl)-5,6,7,8-tetrahydro-3-(2H)isoquinolinone], the ED100 is 3 mg/kg, the Blood pressure is -11.5% and the “Number of heart beat” value is listed as “+18.3%”.

For `Cc1[nH]c(=O)c(C(C)(C)O)c2c1CC(c1ccncc1)CC2` (stereo not drawn) [Example 14, 4-(2-(2-hydroxypropyl))-1-methyl-7-(4-pyridy)-5,6,7,8-tetrahydro-3(2H)isoquinolinone], the ED100 turned out to be 0.1 mg/kg, the Blood pressure is given as -9.3% and the “Number of heart beat” value is on record as “+32.6%”.

With `Cc1[nH]c(=O)c(C(=O)c2ccccc2)c2c1CC(c1ccncc1)CC2` (stereo not drawn) [Example 7, 4-benzoyl-1-methyl-7-(4-pyridyl)5,6,7,8-tetrahydro-3(2H)isoquinolinone], the ED100 came out at 3 mg/kg, the Blood pressure is -28.3% and the “Number of heart beat” value was “+29.6%”.

Consider `CCC(=O)c1c2c(c(C)[nH]c1=O)CC(c1ccncc1)CC2` (stereo not drawn) [Example 4, 1-methyl-4-propionyl-7-(4-pyridyl)-5,6,7,8-tetrahydro-3(2H)isoquinolinone], for which the ED100 was determined as 3 mg/kg, the Blood pressure was -18.0% and the “Number of heart beat” value is “+26.2%”.

Regarding `CCCCC(=O)c1c2c(c(C)[nH]c1=O)CC(c1ccncc1)CC2` (stereo not drawn) [Example 6, 1-methyl-7-(4-pyridyl)5,6,7,8-tetrahydro-4-valeryl-3(2H)isoquinolinone], the ED100 was 3 mg/kg, the Blood pressure is -10.5% and the “Number of heart beat” value is “+19.8%”.

As to `Cc1[nH]c(=O)c(C=O)c2c1CC(c1ccncc1)CC2` (stereo not drawn) [Example 10, 4-formyl-1-methyl-7-(4-pyridyl)-5,6,7,8-tetrahydro-3(2H)isoquinolinone], the ED100 amounted to 3 mg/kg, the Blood pressure is -17.5% and the “Number of heart beat” value was “+24.2%”.

On to `Cc1[nH]c(=O)c(C)c2c1CC(c1ccncc1)CC2` (stereo not drawn) [Example 11, 1,4-dimethyl-7-(4-pyridyl)-5,6,7,8-tetrahydro-3(2H)isoquinolinone], for which the ED100 worked out at 0.3 mg/kg, the Blood pressure is -28.5% and the “Number of heart beat” value is listed as “+21.0%”.

Regarding `C=C(C)c1c2c(c(C)[nH]c1=O)CC(c1ccccn1)CC2` (stereo not drawn) [Example 19, 4-isopropenyl-1-methyl-7-(2-pyridyl)-5,6,7,8-teterahydro-3(2H)isoquinolinon], the ED100 came out at 0.1 mg/kg, the Blood pressure is -15.9% and the “Number of heart beat” value is given as “+27.6%”.

On to `CCc1c2c(c(C)[nH]c1=O)CC(c1ccccn1)CC2` (stereo not drawn) [Example 17, 4-ethyl-1-methyl-7-(2-pyridyl)-5,6,7,8-tetrahydro-3(2H)isoquinolinone], for which the ED100 stood at 0.1 mg/kg, the Blood pressure is listed as -2.1% and the “Number of heart beat” value is listed as “+15.0%”.

In the case of `Cc1[nH]c(=O)c(C(F)(F)C(F)(F)F)c2c1CC(c1ccncc1)CC2` (stereo not drawn) [Example 16, 1-methyl-4-pentafluoroethyl-7-(4-pyridyl)-5,6,7,8-tetrahydro-3(2H)isoquinolinone], the ED100 is 3 mg/kg, the Blood pressure is -15.9% and the “Number of heart beat” value was “+29.1%”.

Consider `CC(=O)c1c2c(c(C3CC3)[nH]c1=O)CC(c1ccncc1)CC2` (stereo not drawn) [Example 3], for which the ED100 came to 3 mg/kg, the Blood pressure is -27.8% and the “Number of heart beat” value is recorded as “+30.6%”.
